Data taken from the NIST ThermoML archive (doi:10.1016/j.fluid.2016.06.024).
Numbers after ± are expanded uncertainties.

Assays:
[1] = molar heat capacity at constant pressure; conditions: Liquid, Flow calorimetry
[2] = molar heat capacity at constant pressure; wn = mass fraction of the nth substance listed; conditions: Liquid, Flow calorimetry, w2 = 0.995

CCO [ethanol]
molar heat capacity at constant pressure [J/K/mol], [1]
Conditions | 100 kPa | 5000 kPa | 10000 kPa | 15000 kPa | 20000 kPa
273.17 K | 103.42 ± 2.9 | 103.1 ± 2.9 | 102.18 ± 2.9 | 101.77 ± 2.9 | 100.8 ± 2.8
293.16 K | 111.62 ± 3.1 | 111.02 ± 3.1 | 109.97 ± 3.1 | 108.95 ± 3 | 108.21 ± 3
313.18 K | 120.47 ± 3.4 | 119.09 ± 3.3 | 117.7 ± 3.3 | 116.78 ± 3.3 | 115.68 ± 3.2
333.19 K | 130.65 ± 3.7 | 129.73 ± 3.6 | 128.35 ± 3.6 | 126.83 ± 3.5 | 125.91 ± 3.5

COC(F)(F)C(F)(F)C(F)(F)F [heptafluoropropyl methyl ether]
[1]
Conditions | molar heat capacity at constant pressure [J/K/mol]
255.05 K, 100 kPa | 233.26 ± 3.2
255.06 K, 10000 kPa | 230.06 ± 3.2
255.06 K, 15000 kPa | 229.26 ± 3.2
255.08 K, 5000 kPa | 231.26 ± 3.2
266.01 K, 100 kPa | 240.27 ± 3.4
266.01 K, 5000 kPa | 238.67 ± 3.4
266.02 K, 10000 kPa | 237.06 ± 3.4
266.03 K, 15000 kPa | 236.46 ± 3.4
275.04 K, 100 kPa | 245.47 ± 3.4
275.04 K, 15000 kPa | 241.27 ± 3.4
275.05 K, 5000 kPa | 244.27 ± 3.4
275.11 K, 10000 kPa | 242.47 ± 3.4
284.81 K, 100 kPa | 251.87 ± 3.6
284.81 K, 5000 kPa | 250.07 ± 3.6
284.86 K, 10000 kPa | 248.67 ± 3.6
284.94 K, 15000 kPa | 247.47 ± 3.4
294.05 K, 100 kPa | 257.67 ± 3.6
294.07 K, 5000 kPa | 255.47 ± 3.6
294.08 K, 10000 kPa | 254.47 ± 3.6
294.1 K, 15000 kPa | 253.67 ± 3.6

COC(F)(F)C(F)(C(F)(F)F)C(F)(F)F [methyl nonafluoroisobutyl ether] + COC(F)(F)C(F)(F)C(F)(F)C(F)(F)F
[2]
Conditions | molar heat capacity at constant pressure [J/K/mol]
253.15 K, 5000 kPa | 209.05 ± 3
253.16 K, 10000 kPa | 207.55 ± 2.5
253.16 K, 15000 kPa | 205.55 ± 3
253.17 K, 100 kPa | 214.05 ± 3
264.15 K, 15000 kPa | 227.11 ± 3.2
264.16 K, 5000 kPa | 230.61 ± 3.3
264.17 K, 100 kPa | 232.86 ± 3.3
264.18 K, 10000 kPa | 228.61 ± 3.2
274.59 K, 15000 kPa | 249.36 ± 3.5
274.63 K, 100 kPa | 257.81 ± 3.8
274.63 K, 5000 kPa | 252.81 ± 3.5
274.63 K, 10000 kPa | 250.86 ± 3.5
284.25 K, 10000 kPa | 273.79 ± 3.9
284.26 K, 100 kPa | 278.04 ± 3.9
284.27 K, 5000 kPa | 275.79 ± 3.9
284.3 K, 15000 kPa | 272.29 ± 3.8
294.09 K, 5000 kPa | 297.5 ± 4.2
294.09 K, 10000 kPa | 294.82 ± 4.3
294.1 K, 100 kPa | 300.52 ± 4.2
294.13 K, 15000 kPa | 294 ± 4.2
303.94 K, 10000 kPa | 317.35 ± 4.5
303.95 K, 100 kPa | 321.61 ± 4.5
303.96 K, 5000 kPa | 319.35 ± 4.5
303.96 K, 15000 kPa | 315.85 ± 4.5
314.92 K, 100 kPa | 347.39 ± 4.9
314.92 K, 5000 kPa | 345.14 ± 4.9
314.92 K, 10000 kPa | 342.34 ± 4.8
314.92 K, 15000 kPa | 340.08 ± 5
323.71 K, 100 kPa | 374.09 ± 5.3
323.72 K, 5000 kPa | 369.47 ± 5.2
323.73 K, 10000 kPa | 367.47 ± 5.2
323.74 K, 15000 kPa | 364.84 ± 5.3
